Measurements from patent US20250136581A1, “SUBSTITUTED TRIAZOLE DERIVATIVE, PREPARATION METHOD THEREFOR, PHARMACEUTICAL COMPOSITION THEREOF, AND USE THEREOF” (SHANGHAI SIMR BIOTECHNOLOGY CO., LTD., priority 2021, published 2025).
Read-outs that look alike come from different tables or passages of the source.

Columns and labels:
[1] = target: human α5β3γ2 receptors (α5-GABAA receptor) (Homo sapiens (Human), UniProt P18507+P31644); assay: 3H-flunitrazepam competition binding, human α5β3γ2 GABAA receptor; conditions: HEK293 cell membranes, 1 nM 3H-flunitrazepam; read-out: α5-GABAAR Ki
Summary of the method: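 HEK293 membranes stably expressing each human receptor subtype ([…]) competed against 1 nM 3H-flunitrazepam in Tris buffer, 1 h at room temperature; flumazenil defined the low-signal control. Eight-point 4-fold test-compound dilutions; GF/C filtration and scintillation counting gave IC50 by curve fitting, converted to Ki.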

[2] = target: α5-GABAA receptor (α5, β3, γ2 subunits) (Homo sapiens (Human), UniProt P18507+P31644); assay: Whole cell patch clamp, inverse agonist efficacy in HEK293 cells expressing α5-GABAA receptor; format: cell-based; conditions: HEK293, drug 100 nM, GABA 0.05 μM, −60 mV; read-out: Compound inverse agonist efficacy %
Summary of the method: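 Stable HEK293 line co-expressing human α5, β3, γ2 subunits; whole-cell patch clamp at −60 mV, inward current evoked by 0.05 μM GABA, then compound at 100 nM in GABA solution applied. Effect derived from leak, pre- and post-drug GABA currents.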

[3] = Rat pharmacokinetic experiment; format: in vivo; conditions: rat, po; for Kp: male, SD, brain / plasma, read-out: B/P (proportion of compounds entering the brain); for Cmax: plasma, male SD rats
Procedure: The maximum plasma concentration (Cmax) in the rat pharmacokinetic experiment was used to evaluate the absorption of the compounds in rat in vivo. The experimental compound was dissolved and then orally administered by gavage (p.o.) to male SD rats. The rats were fasted overnight before drug administration, and blood was collected via venipuncture at 0.25, 0.5, 1, 2, 4, and 7 hours post dose. Approximately 100 μL blood was collected for each sample; at the same time, the whole brain was taken and homogenized with 3 times the amount of PBS for analysis. The […] method was used to determine drug concentrations in plasma and brain tissue, and the proportion of compounds entering the brain (B/P) was calculated based on the AUC of the compound. Pharmacokinetic parameters were calculated using Phoenix WinNonlin 7.0. The administration vehicle was 5% CMC-Na aqueous solution.

[4] = target: human α1β3γ2 receptors (Homo sapiens (Human), UniProt P14867+P18507); assay: 3H-flunitrazepam competition binding, human α1β3γ2 GABAA receptor; conditions: HEK293 cell membranes, 1 nM 3H-flunitrazepam; read-out: Ki α1
Procedure: (§1) The affinity of the compound to each subtype of GABAA receptor was determined by competing for the binding of ^3H-flunitrazepam to HEK293 cells stably expressing human α1β3γ2, α2β3γ2, α3β3γ2, and α5β3γ2 receptors.
(§2) The cells were suspended in 50 mM Tris-HCl buffer (pH=7.4), homogenized 10 times on ice with a homogenizer for 20 seconds, and centrifuged at 1000 g for 10 minutes at 4° C. The supernatant was collected, and the above steps were repeated. The supernatant was centrifuged at 4° C. (33800 g; Thermo, rotor: A27-8×50) for 60 minutes, and the precipitate was resuspended in Tris buffer (50 mM Tris-HCl, 10 mM MgCl2, 0.5 mM EDTA, 10% glycerol). Protein was measured (BCA method, Pierce), and 1 mL aliquots were prepared and stored at −80° C.
(§3) The radioligand competition binding assay was performed in a 200 μL system (96-well plate) containing 100 μL of cell membrane. The concentration of ^3H-flunitrazepam was 1 nM and the concentration of the test compound was in the range of […]. Flumazenil was used as a control. 1 μL of 2 mM flumazenil (final concentration […]) was added to the low signal control well (Low control, LC), and 1 μL of DMSO was added to the high signal control well (High control, HC). The final concentration of target membrane protein was […]. All test compound sample storage solutions were 10 mM. The working concentration of the samples was to dilute all the samples to 0.2 mM with DMSO, followed by 4-fold serial gradient dilutions for a total of 8 concentration gradients. The 96-well plate was sealed with a sealing film, and then incubated on a shaker at room temperature for 1 hour. At the same time, the GF/C filter plate was soaked in soaking buffer (0.3% PEI, stored at 4° C.) for at least 0.5 hours. After the binding incubation was completed, the cells were collected onto a GF/C filter plate using a cell harvester. The plate was washed four times with washing buffer (50 mM Tris-HCl, pH 7.4, stored at 4° C.). After drying in a 50° C. oven for 1 hour, the bottom of the dried GF/C filter plate was sealed. The residual radioactivity on the filter membrane was detected using liquid scintillation counting. 50 μL of scintillation fluid was added to each well, and the plate was sealed. The readings were taken using a Microbeta2. The inhibitory activity of the test sample on the binding of ^3H-flunitrazepam to GABAA receptor membrane proteins was calculated, and the IC50 of each test sample was calculated by dose-effect curve fitting (GraphPad Prism 5 software), and the Ki of the sample was calculated from the IC50, thus evaluating the binding ability of the sample to the various subtypes of GABAA receptors.

[5] = target: human α2β3γ2 receptors (Homo sapiens (Human), UniProt P18507+P47869); assay: 3H-flunitrazepam competition binding, human α2β3γ2 GABAA receptor; conditions: HEK293 cell membranes, 1 nM 3H-flunitrazepam; read-out: Ki α2
Procedure: as §1, §2, §3

[6] = target: human α3β3γ2 receptors (Homo sapiens (Human), UniProt P18507+P34903); assay: 3H-flunitrazepam competition binding, human α3β3γ2 GABAA receptor; conditions: HEK293 cell membranes, 1 nM 3H-flunitrazepam; read-out: Ki α3
Procedure: as §1, §2, §3

SMILES | Ki [1] [nM] | inhibition at 0.1 µM [2] [%] | Kp ([3]; 3 mg/kg) | Cmax ([3]; 3 mg/kg) [ng/mL] | Ki [4] [nM] | Ki [5] [nM] | Ki [6] [nM] | Kp ([3]; 1 mg/kg) | Cmax ([3]; 1 mg/kg) [ng/mL]
Cc1nnn(-c2ccc(C(F)F)cc2)c1COc1ccc(N2CC(=O)N3CCC[C@H]3C2)nn1 [Example 14, (S)-2-(6-((1-(4-(difluoromethyl)phenyl)-4-methyl-1H-1,2,3-triazol-5-yl)methoxy)pyridazin-3-yl)hexahydropyrrolo[1,2-a]pyrazin-4(1H)-one] | 1.24 | 45.7 | 0.0135 | 2700 | – | – | – | – | –
Cc1nnn(-c2ccc(C(F)F)cc2)c1COc1ccc(N2CCNC(=O)C2)cn1 [Example 21, 4-(6-[(1-(4-(Difluoromethyl)phenyl)-4-methyl-1H-1,2,3-triazol-5-yl)methoxy]pyridin-3-yl)piperazin-2-one] | 1.24 | 49.3 | – | – | 36.7 | 41.7 | 21.8 | 0.045 | 576
Cc1nnn(-c2ccc(C(F)F)cc2)c1COc1ccc(N2CCN3CCNC(=O)[C@@H]3C2)cn1 [Example 56, (S)-8-(6-((1-(4-(Difluoromethyl)phenyl)-4-methyl-1H-1,2,3-triazol-5-yl)methoxy)pyridin-3-yl)octahydro-1H-pyrazino[1,2-a]pyrazin-1-one] | 7.99 | 53.4 | 0.0261 | 2050 | – | 330 | – | – | –
Cc1nnn(-c2ccc(F)cc2)c1COc1ccc(N2CCNC(=O)C2)nn1 [Example 76, 4-(6-((1-(4-Fluorophenyl)-4-methyl-1H-1,2,3-triazol-5-yl)methoxy)pyridazin-3-yl)piperazin-2-one] | 2.87 | 45.3 | – | – | 832 | 301 | 173 | – | –
N#Cc1nnn(-c2ccc(C(F)F)cc2)c1COc1ccc(N2CCNC(=O)C2)nn1 [Example 78, 1-(4-(Difluoromethyl)phenyl)-5-(((6-(3-oxopiperazin-1-yl)pyridazin-3-yl)oxy)methyl)-1H-1,2,3-triazole-4-carbonitrile] | 2.03 | 43.7 | – | – | 246 | 45.9 | 28.4 | – | –
O=C1CN(c2ccc(OCc3c(CO)nnn3-c3ccc(C(F)F)cc3)nn2)CCN1 [Example 80, 4-(6-((1-(4-(Difluoromethyl)phenyl)-4-(hydroxymethyl)-1H-1,2,3-triazol-5-yl)methoxy)pyridazin-3-yl)piperazin-2-one] | 0.82 | 54.8 | – | – | 161 | 22.7 | 16 | – | –
Cc1nnn(-c2ccc(C(F)F)cc2)c1COc1ccc(N2CC(C(=O)Nc3cnn(C)c3)C2)nn1 [Example 103, 1-(6-((1-(4-(Difluoromethyl)phenyl)-4-methyl-1H-1,2,3-triazol-5-yl)methoxy)pyridazin-3-yl)-N-(1-methyl-1H-pyrazol-4-yl)azetidine-3-carboxamide] | 1.27 | 49.6 | – | – | 52.8 | 40.1 | 10.3 | – | –
Cc1nnn(-c2ccc(C(F)F)cc2)c1COc1ccc(N2CC(C(=O)N3CCOCC3)C2)nn1 [Example 104, (1-(6-((1-(4-(Difluoromethyl)phenyl)-4-methyl-1H-1,2,3-triazol-5-yl)methoxy)pyridazin-3-yl)azetidin-3-yl)(morpholino)methanone] | 1.77 | 49.9 | 0.0095 | 3890 | – | – | – | – | –
Cc1nnn(-c2ccc(C(F)F)cc2)c1COc1ccc(N2CCN(C3CC3)C(=O)C2)nn1 [Example 108, 1-Cyclopropyl-4-(6-((1-(4-(difluoromethyl)phenyl)-4-methyl-1H-1,2,3-triazol-5-yl)methoxy)pyridazin-3-yl)piperazin-2-one] | 1.66 | 52.2 | 0.0208 | 1780 | – | – | – | – | –
Cc1nnn(-c2ccc(C(F)F)cc2)c1COc1ccc(N2C[C@H]3C[C@@H]2C(=O)N3)nn1 [Example 116, (1R,4R)-5-(6-((1-(4-(Difluoromethyl)phenyl)-4-methyl-1H-1,2,3-triazol-5-yl)methoxy)pyridazin-3-yl)-2,5-diazabicyclo[2.2.1]heptan-3-one] | 1.66 | 48.4 | – | – | 65.2 | 50.1 | 22.7 | – | –
Cc1nnn(-c2ccc(C(F)F)cc2)c1COc1ccc(N2CCN3c4ccccc4NC(=O)[C@@H]3C2)nn1 [Example 122, (S)-3-(6-((1-(4-(Difluoromethyl)phenyl)-4-methyl-1H-1,2,3-triazol-5-yl)methoxy)pyridazin-3-yl)-2,trans-3,4,4a-tetrahydro-1H-pyrazino[1,2-a]quinoxalin-5(6H)-one] | 2.46 | 48.7 | – | – | 266 | 149 | 67.3 | – | –
Cn1nnc(-c2ccc(C(F)F)cc2)c1COc1ccc(N2CCNC(=O)C2)nn1 [Example 127, 4-(6-((4-(4-(Difluoromethyl)phenyl)-1-methyl-1H-1,2,3-triazol-5-yl)methoxy)pyridazin-3-yl)piperazin-2-one] | 2.08 | 55 | – | – | 400 | 23.7 | 36.7 | – | –
Cc1ccc(-n2nnc(C)c2COc2ccc(N3CCN4CCNC(=O)[C@@H]4C3)nn2)cc1 [Example 129, (S)-8-(6-((4-Methyl-1-(p-tolyl)-1H-1,2,3-triazol-5-yl)methoxy)pyridazin-3-yl)octahydro-1H-pyrazino[1,2-a]pyrazin-1-one] | 9.75 | 56.3 | – | – | 911 | 168 | 195 | – | –
Cc1nnn(-c2ccc(C(F)F)cc2)c1COc1ccc(N2CCN3CCN(C4CC4)C(=O)[C@@H]3C2)nn1 [Example 148, (S)-2-Cyclopropyl-8-(6-((1-(4-(difluoromethyl)phenyl)-4-methyl-1H-1,2,3-triazol-5-yl)methoxy)pyridazin-3-yl)hexahydro-2H-pyrazino[1,2-a]pyrazin-1(6H)-one] | 2.5 | 42.6 | – | – | 445 | 117 | 56.2 | – | –
Cc1nnn(-c2ccc(C(F)F)cc2)c1COc1ccc(N2CC(=O)N3CCOC[C@H]3C2)nn1 [Example 173, (R)-8-(6-((1-(4-(Difluoromethyl)phenyl)-4-methyl-1H-1,2,3-triazol-5-yl)methoxy)pyridazin-3-yl)hexahydropyrazino[2,1-c][1,4]oxazin-6(1H)-one] | 0.55 | 50.8 | – | – | 80.6 | 16.8 | 14.1 | – | –
